Measurements taken from patent US6140363A, “Use of rosmarinic acid and derivatives thereof as an immunosuppressant or an inhibitor of SH2-mediated processes” (Mogam Biotechnology Research Institute, priority 1998, dated 2000).
“Also recorded” adds a separate entry of the source. Like-named read-outs stand apart in the source and are kept apart here.

Legend:
[1] = tested on: C57BL/6 tail-skin graft on Balb/c recipient mice; assay: skin allograft rejection, survival time of skin graft; format: in vivo
Experimental: In vivo procedure evaluated the survival time of a skin graft.
Experimental allograft rejection was performed by grafting allogeneic C57BL/6 (H-2b) mouse tail-skin onto Balb/c (H-2d) recipient mice. Rosmarinic acid and derivative thereof were administered intramuscularly from the day of the transplantation until rejection. […] Full-thickness donor (C57BL/6) tail skin grafts (square pieces 2.0×2.0 cm) were transplanted onto the lateral thorax of recipient mice (Balb/C) and covered with sterile bactericidal gauze. The entire chest was then wrapped with an elastic bandage. […] Skin graft were monitored daily after the removal of the bandage on day 6. Rejection was defined as more than 90% necrosis of the graft epithelium.

[2] = tested on: DNFB-induced contact hypersensitivity; assay: contact hypersensitivity response to DNFB, ear thickness; format: in vivo, Balb/c female mice; settings: intramuscular, 6 consecutive days during induction phase; rosmarinic acid 5-50 mg/kg/day
Experimental: In vivo test procedure evaluating the immunosuppressive activity was performed using contact hypersensitivity response to DNEB (2,4-dinitroflourobenzene). […] This is an antigen-specific T cell-mediated inflammatory response that represents delayed-type hypersensitivity (DTH) reactions seen in both humans and other mammals. The contact sensitivity animal model is used routinely in many laboratories for pharmacological screening of anti-inflammatory agents and agents for the treatment of autoimmune diseases. […] The procedure is summarized as following. Balb/c female mice were used at 8 weeks of age. Twenty μl of 0.5% DNFB (Sigma Chemical Co.) in 4:1 diluted acetone: olive oil (Sigma Chemical Co.) was painted on each shaved abdominal skin for 2 successive days. Four days later, the mice were challenged by applying 10 μl of 0.2% DNFB in the same vehicle to each side of each ear. Cydosporin A and rosmarinic acid were treated through intramuscular administration at the indicated doses from 0 to 5 day. Ear thickness was measured using engineer's micrometer (Mitutoyo Co. Mfg. Ltd., Tokyo) 24 h after postchallenge.

SPF SD type rat = assay: parenteral administration test for acute toxicity; format: in vivo
From the text: Acute toxicity was examined using 6week-old SPF SD type rat. As liposomal form, I g/kg of rosmarinic acid, rosmarinyl isopropyl ester, rosmarinyl ethyl ester, (S)-rosmarinyl bis(tert-butyldimethylsilyl)ether or (S)-rosmarinic acid was intramuscularly injected into two […] per experimental group.

Lck SH2 domain = target: T1, Lck SH2 domain (Homo sapiens, UniProt P06239); assay: in vitro binding between Lck SH2 domain (GST fusion) and biotinylated phosphotyrosyl peptide
T1 construct: Lck SH2 domain expressed and purified as a fusion protein with Glutathione-S-transferase; made in house
From the text: A novel screening system was developed in the present invention to screen a substance inhibiting the interaction between Lck SH2 domain and its ligand. In the binding assay, Lck SH2 domain expressed and purified as a fusion protein with Glutathione-S-transferase (GSI) were covalently attached to 96-well microtitre plates through amide bond formation. The immobilized proteins were subsequently allowed to bind biotinylated phosphotyrosine (Y)-containing synthetic peptide (biotin-[…]pYEEIPI) known as a high affinity ligand for the Lck SH2 domain.
For attachment to 96-well microtitre plate, 1 μM of purified fusion protein (GST-Lck SH2) was reacted for 2 hours at room temperature. Added to the binding assay were 1 μM of the biotinylated synthetic peptide (the ligand of Lck SH2 domain) and a candidate for the inhibitor. The candidates were thousands of natural products including various kinds of Streptoryces, fungi and herbs extract. Binding reaction was performed for 2 hours at room temperature, allowing the competitive inhibition of the binding between GST-Lck SH2 and the peptide ligand. Then peroxidase-conjugated streptavidin (Pierce, USA) was added into the mixture so that added conjugates can be bound to biotinylated peptide. After unbound conjugates were washed, coloring reaction was performed to measure the activity of immobilized peroxidase, or the binding activity of the peptide to SH2 domain in the presence of the candidate added. More particularly, the coloring reaction was initiated by adding 3,3,5,5-tetramethyl benzidine (substrate) to the reaction mixture. After 30 minutes, the reaction was stopped by adding 0.8M sulfuric acid, and immediately brought to the spectrophotometry of measuring absorbance at 450 nm.
Various concentrations (0.03~300 μg/ml) of rosmarinic acid solution, which was isolated from Prunella vulgaris or derivatives thereof, were added to the protein-coated micro-well mixed with phosphopeptide solution. The binding of biotiyated pY peptides was detected by the streptavidin-conjugated horseradish peroxidase (HRP).

[3] = tested on: IL-2 gene expression in Jurkat T cells; assay: TCR stimulation-induced IL-2 gene expression, IL-2-luciferase reporter system; format: cell-based; settings: 8 μM, 30 min prior to T cell activation
Experimental: The effects of rosmarinic acid and derivatives thereof on the level of IL-2 gene expression were tested by using the IL-2-luciferase reporter system, in which cultured cells were transfected with a reporter plasmid. The plasmid was constructed by fusion of the IL-2 promoter sequence with the structural gene of luciferase. […] Cells were activated by incubation for 14 h on a 35 mm dish coated with 5 μg/ml anti-CD3 antibody (UCHT1, Pharmingen) and/or anti-CD4 antibody (RPA-T4, Pharmingen) and then harvested. For PMA plus Iononycin stimulation, 5 ng/ml of PMA and 500 ng/ml of lonomycin were added to the culture media and incubated for 14 h. Luciferase activity was determined three times in duplicate for each experiment with a Berthold luminometer LB953.

Jurkat cells = assay: intracellular calcium signaling activated by anti-CD3 and anti-CD4 antibodies (Fura-2/AM); format: cell-based; settings: 0.5-50 μg for 10 minutes, then anti-CD3 and anti-CD4 antibodies
Experimental: Fura-2/AM (Calbiochem, San Diego, Calif., USA), a fluorescent indicator of intracellular calcium, was loaded into Jurkat cells, and various amounts (0.5 μg, 1 μg, 10 μg, 50 μg) of rosmarinic acid, isolated from Prunella vulgaris, was treated to the cells for 10 minutes. The cells were treated with anti-CD3 and anti-CD4 antibodies, and then the fluctuation of intracellular calcium level was recorded by the amount of fluorescence emitted from the cells.

[4] = tested on: IL-1β, IL-2, IL-4, IL-6 and IFN-γ mRNA; assay: cytokine mRNA in renal allografts, semi-quantitative RT-PCR; format: in vivo, mice; settings: renal allograft day 7, i.m. daily 7 days, rosmarinic acid 25, Cyclosporin A 50 mg/kg/day
From the text: Balb/c recipients transplanted from C57BL/6 donor were killed at 7 day after the subcapsular kidney transplantation. Renal allografts were harvested and total cellular RNA was extracted and analyzed for the expression of various cytokine mRNA. Using a serniquantitative PCR method, we temporally analyzed mRNA levels of IL-1β, IL-2, IL-4, IL-6 and IFN-γ.
The cytokine levels of PCR products were normalized by β-actin mRNA used as a control.
Kidney fragments (C57BL/6) were transplanted to allogeneic mice (Balb/C) using subcapsular kidney transplantation technique.
Total RNA from the grafts was isolated using TRIZOL® LS Reagent (Life Technologies), incubated at room temperature for 15 min after addition of chloroform, extracted with phenol/chloroform, and precipitated with isopropanol. Isolated total RNA was then quantitated spectrophotometrically. Total RNA from the graft (1 μg) was performed using Titan™ One Tube RT-PCR System (BM) according to the manufacture's protocol. The PCR was done in a 50 μl volume containing 1× RT-PCR buffer with Mg^2+, 0.2 mM each dNTP(dATP, dGTP, dCTP and dTTP), 10U RNase inhibitor, enzyme mix (AMV and Expand™ High Fidelity PCR-System),5 mM DTT solution and 0.4 μM appropriate primer pair. Primer sequences for IL-2, IFN-γ, IL-4, IL-6, IL-1β and β-actin were obtained from previous reports. […] The number of amplification cycles was 25. An aliquot (15 μl) of the PCR product was electrophoresed on 2% agarose gel, and amplified DNA fragments were stained with ethidium bromide.

[5] = 1 g/kg intramuscular, liposomal form
[6] = GST-Lck SH2, 1 μM biotinylated pY peptide, 0.03~300 μg/ml tested, read-out: half-maximal inhibitory concentration (IC50) of binding to Lck SH2 domain (converted)

T1 sequence (P06239 127-224 limits assumed): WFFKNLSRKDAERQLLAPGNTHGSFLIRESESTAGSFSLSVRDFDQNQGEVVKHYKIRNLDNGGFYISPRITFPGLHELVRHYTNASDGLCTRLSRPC

Row | Compound | MST ± SD ([1]; 15 mg/kg/day i.m.) | suppression of DNFB-induced contact hypersensitivity [2] | acute toxic effect (clinic symptom, weights, blood test, autopsy) (SPF SD type rat; [5]) | survival after acute dose (SPF SD type rat; [5]) | IC50 (Lck SH2 domain; read-out: half-maximal inhibitory concentration (IC50) of binding to Lck SH2 domain, GST-Lck SH2, 1 μM biotinylated pY peptide, 0.03~300 μg/ml tested) | inhibition of TCR-induced IL-2 gene expression (luciferase activity) [3] | IC50 (Lck SH2 domain) | survival after acute dose (SPF SD type rat; in vivo) | IC50 (Lck SH2 domain; [6]) | inhibitory effect on intracellular calcium level (Jurkat cells) | MST ± SD ([1]; 15 mg/kg/day i.m., listed as rosmarinic acid) | MST ± SD ([1]; 25 mg/kg/day i.m.) | IFN-γ mRNA transcription in allograft transplants [4] | IL-1β mRNA transcription in allograft transplants ([4]; 50 mg/kg/day) | IL-2 mRNA transcription in allograft transplants ([4]; 50 mg/kg/day) | IL-4 mRNA transcription in allograft transplants ([4]; 50 mg/kg/day) | IL-6 mRNA transcription in allograft transplants ([4]; 50 mg/kg/day)
1 | CC(C)(C)[Si](C)(C)Oc1ccc(/C=C/C(=O)O[C@@H](Cc2ccc(O)c(O)c2)C(=O)O)cc1O[Si](C)(C)C(C)(C)C [(S)-Rosmarinyl bis(tert-butyldimethylsilyl)ether] | 13.2 ± 1.6 days | dose-dependent suppression | did not elicit any toxic effect | all tested animals were survived | 22.1 µM | inhibited as much as rosmarinic acid |  |  |  |  |  |  |  |  |  |  | 
2 | O=C(/C=C/c1ccc(O)c(O)c1)O[C@@H](Cc1ccc(O)c(O)c1)C(=O)O [(S)-rosmarinic acid] | 14.8 ± 1.5 days | dose-dependent suppression | did not elicit any toxic effect | all tested animals were survived |  | inhibited as much as rosmarinic acid | 27.8 µM |  |  |  |  |  |  |  |  |  | 
3 | CC(C)OC(=O)C(Cc1ccc(O)c(O)c1)OC(=O)/C=C/c1ccc(O)c(O)c1 (centres unmarked) [Rosmarinyl isopropyl ester] | 14.2 ± 1.8 days | dose-dependent suppression | did not elicit any toxic effect |  |  | inhibited as much as rosmarinic acid |  | all tested animals were survived | 2.49 µM |  |  |  |  |  |  |  | 
4 | O=C(/C=C/c1ccc(O)c(O)c1)OC(Cc1ccc(O)c(O)c1)C(=O)O (centres unmarked) [Rosmarinic acid, rosmarinic acid] | 14.0 ± 1.0 days | dose-dependently suppressed | did not elicit any toxic effect | all tested animals were survived |  | more efficiently than other immunosuppressants did | 8.33 µM |  |  | dose-dependent inhibitory effect | 14.0 days | 18.8 ± 3.6 days | markedly inhibited | markedly inhibited; also recorded: more potent activity than that of Cyclosporin A | markedly inhibited; also recorded: more potent activity than that of Cyclosporin A | markedly inhibited; also recorded: significantly reduced | markedly inhibited; also recorded: significantly reduced
5 | CCOC(=O)C(Cc1ccc(O)c(O)c1)OC(=O)/C=C/c1ccc(O)c(O)c1 (centres unmarked) [Rosmarinyl ethyl ester] | 14.4 ± 1.8 days | dose-dependent suppression | did not elicit any toxic effect |  |  | inhibited as much as rosmarinic acid |  | all tested animals were survived | 10.3 µM |  |  |  |  |  |  |  | 
